Columns and labels:
Format in all cases: biochemical
[1] = test system: α-Amylase; assay: Determination of α-Amylase activity with reagent paper (Beispiel 21); conditions: filter paper soaked with substrate in Citratpuffer pH 6; sample with amylase plus α- and ß-Glucosidase; after a few minutes
Source text: Bestimmung der α-Amylase-Aktivität
Filterpapier wird mit Resorufin-maltoheptaosid (hergestellt gemäß Beispiel 17), gelöst in Citratpuffer, pH 6, getränkt. Das so ernaltene Reagenzpapier wird nacheinander mit der d-Amylase enthaltenden Probe sowie mit a- und ß-Glucosidase versetzt.
Mit Hilfe von Proben mit bekannter d-Amylase-Konzentration läßt sicn eine Eichkurve ermitteln, anhand derer der uhbekannte d-Amylase-Genalt einer Probe bestimmt werden Kann.

[2] = molecular target: ß-D-Galaktosidase (Escherichia coli, UniProt P00722); assay: Kinetics of the enzymatic hydrolysis (Michaelis-Menten)
Sequence of ß-D-Galaktosidase (P00722 2-1024): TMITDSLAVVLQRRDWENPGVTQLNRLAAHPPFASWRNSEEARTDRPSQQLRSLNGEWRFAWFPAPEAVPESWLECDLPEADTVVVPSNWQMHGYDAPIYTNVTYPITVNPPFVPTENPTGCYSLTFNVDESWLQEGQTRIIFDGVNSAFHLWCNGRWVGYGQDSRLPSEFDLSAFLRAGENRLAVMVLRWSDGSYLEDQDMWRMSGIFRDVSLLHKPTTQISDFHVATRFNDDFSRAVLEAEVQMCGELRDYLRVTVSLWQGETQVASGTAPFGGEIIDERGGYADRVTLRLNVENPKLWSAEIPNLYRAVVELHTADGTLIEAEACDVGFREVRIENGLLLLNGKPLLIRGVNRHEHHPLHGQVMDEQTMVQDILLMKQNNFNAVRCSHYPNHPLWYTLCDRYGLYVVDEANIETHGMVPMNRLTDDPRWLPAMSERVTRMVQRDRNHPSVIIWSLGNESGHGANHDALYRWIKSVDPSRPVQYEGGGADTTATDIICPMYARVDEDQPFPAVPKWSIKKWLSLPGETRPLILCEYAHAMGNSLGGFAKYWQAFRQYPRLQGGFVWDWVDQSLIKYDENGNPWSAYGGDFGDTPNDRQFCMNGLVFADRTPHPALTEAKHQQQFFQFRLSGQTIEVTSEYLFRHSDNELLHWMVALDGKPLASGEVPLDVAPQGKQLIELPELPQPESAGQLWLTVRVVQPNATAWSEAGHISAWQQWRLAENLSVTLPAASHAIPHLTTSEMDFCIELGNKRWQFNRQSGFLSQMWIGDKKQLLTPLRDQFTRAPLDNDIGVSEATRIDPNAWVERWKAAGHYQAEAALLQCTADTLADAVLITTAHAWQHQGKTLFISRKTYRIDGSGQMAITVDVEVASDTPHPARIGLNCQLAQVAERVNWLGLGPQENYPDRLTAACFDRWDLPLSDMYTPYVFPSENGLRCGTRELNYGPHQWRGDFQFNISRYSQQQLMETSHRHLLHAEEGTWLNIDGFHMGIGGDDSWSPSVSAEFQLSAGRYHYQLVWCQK
Source text: Bei der Synthese der Glycoside der Resorufin-Derivate der allgemeinen Formel II entstehen nicht-fluoreszierende Verbindungen, aus denen durch enzymatische Spaltung mit Hilfe der entsprechenden Glycosidasen wieder die fluoreszierenden Resorufin-Derivate freigesetzt werden. Die erfindungsgemäßen fluorogenen Resorufin-nerivate besitzen im Vergleich zu den bisher bekannten Glycosiden anderer chromogener bzw. fluorogener Gruppen sehr vorteilhafte Eigenschaften. Als monosubstituierte Derivate weisen sie eine Kinetik der enzymatischen Hydrolyse auf, die sehr einfach durch die Michaelis-Menten-Beziehung beschrieben werden kann. Für das Resorufin-ß-D-galactopyranosid gilt beispielsweise eine Michaelis-Konstante KM = 0,38 mmol/1. Die Hemmung dieser Hydrolyse durch das natürliche Substrat Lactose ist kompetitiv, so daß für bestimmte Untersuchungen der spezifische Umsatz von Glycosiden der Resorufin-Derivate durch Zugabe von natürlichen Glycosiden, wie Lactose im Falle der ß-D-Galaktosidase, definiert und reversibel verändert werden kann.

[3] = molecular target: T1, ß-D-Galactosidase (Escherichia coli, UniProt P00722); assay: Detection of ß-D-Galactosidase with an indicator film / test strip (Beispiel 19); conditions: test strip containing the substrate, dipped in ß-D-Galactosidase solution; 2 Minuten bei Raumtemperatur
T1 sequence (P00722 2-1024): as above
Protocol: Nachweis von ß-D-Galactosidase mit Hilfe eines Indlkatorfilms
Zu einer nomogenen Masse werden verarbeitet: • 5 ml einer wäßrigen Lösung mit 0,5 M Kaliumphosphat und • 0,05 M Magnesiumchlorid, pH 7,3 . • 0,13 g Natriumalginat • 8 g einer 50 %igen Dispersion von Polyvinylpropionat • 10 g Kieselgel • 12 ml Wasser • 0,4 g Triton X-100 • 50 mg Resorufin-ß-D-galactopyranosid, in 5 ml Methanol gelöst.
Diese Masse wird auf eine 0,1 mm starke Polycarbonatfolie (poKalon, Fa. Lonza) mit einer Spaltbreite von 0,2 mm aufgetragen. Die Beschichtung wird bei 50° C getrocknet und danach in Stücke von 6 auf 6 mm geschnitten. Diese werden mit Hilfe von Klebeband auf eine 400 um starke Polystyrolfolie aufgeklebt.
Die so erhaltenen Teststreifen werden kurze Zeit in die zu prüfende, ß-D-Galactosidase enthaltende Lösung getaucht. […] Mit Hilfe von Testlösungen mit einem bestimmten, bekannten ß-D-Galactosidase-Gehalt kann man eine Farbskala erhalten, anhand derer der unbekannte Genalt an ß-D-Galactosidase in einer Probe ermittelt werden kann.

[4] = molecular target: ß-D-Galactosidase-Antikörper-Konjugat (Escherichia coli, UniProt P00722); assay: Determination of the activity of conjugated ß-D-Galactosidase, photometric at 578 nm (Beispiel 20); conditions: 0,8 mmol/l substrate, 950 ul Reagenslösung + 50 ul Enzym-Konjugat-Lösung, 37° C
Sequence of ß-D-Galactosidase-Antikörper-Konjugat (P00722 2-1024): as above
Source text: (§1) Bestimmung der Aktivität freier und konjugierter ß-D-Galactosidase
(§2) Reagenslösung: • In vorstehend beschriebener Pufferlösung werden 0,8 mmol/1 Resorufin-ß-D-galactopyranosid gelöst.
Enzym-Konjugat-Lösung: • Verwendet wird ein ß-D-Galactosidase-Antikörper-Präparat. Die Herstellung solcher Enzym-Antikörper-Konjugate ist bekannt. Sie ist beispielsweise in Biochem. Biophys. Acta 612, 40 - 49 (1980) beschrieben. Das Präparat wird in Puffer so verdünnt, daß sich eine mit der oben beschriebenen Enzymlösung ungefähr vergleichbare Aktivität ergibt.
(§3) Die Messung erfolgt photometrisch bei 578 nm. 950 ul Reagenslösung werden jeweils in einer 1-cm-Küvette bei 37 °C mit 50 ul Enzymlösung bzw. mit 50 ul Enzym-Konjugat-Lösung vermischt. Als Maß für die Reaktion wird der Extinktionsanstieg pro Zeiteinheit in [mExt/min] ermittelt.

[5] = molecular target: T2, freie ß-D-Galactosidase (Escherichia coli, UniProt P00722); assay: Determination of the activity of free ß-D-Galactosidase, photometric at 578 nm (Beispiel 20); conditions: 0,8 mmol/l substrate, 950 ul Reagenslösung + 50 ul Enzymlösung (ca. 0,08 U/ml), 37° C
T2 construct: purchased
T2 sequence (P00722 2-1024): as above
Protocol: as §1, §2
Enzymlösung: • Handelsübliche ß-D-Galactosidase aus Escherichia coli wird in Puffer gelöst. Die Aktivität dieser Lösung beträgt ca. 0,08 U/ml (bezogen auf die Hersteller-Angaben).
as §3

[6] = molecular target: T1, ß-D-Galactosidase; assay: Determination of ß-D-Galactosidase activity, photometric at 579 nm (Beispiel 18); set-up: purchased; conditions: Extinktionsanstieg pro Zeiteinheit, 950 ul Reagens + 50 ul Enzymlösung (ca. 0,08 U/ml), 37° C, pH 7,3, substrate 0,8 / 3,5 / 1,0 mmol/l in Reagens 1 / 2 / 3
Source text: Bestimmung der Aktivität der ß-D-Galactosidase
In der vorstehend beschriebenen Pufferlösung werden 0,8 mmol/1 Resorufin-ß-D-galactopyranosid gelöst.
In der vorstehend beschriebenen Pufferlösung werden 3,5 mmol/1 Resorufin-9-carbonsäure-ß-D-galactopyranosid gelöst.
In der vorstehend beschriebenen Pufferlösung werden 1,0 mmol/1 Resorufin-9-carbonsäuremethylester-ß-D-galactopyranosid gelöst.
Handelsübliche ß-D-Galactosidase aus Escherichia coli wird in der vorstehend genannten Pufferlösung gelöst. Die AKtivität dieser Lösung beträgt ca. 0,08 U/ml (bezogen auf die Hersteller-Angaben).
Die Messung erfolgt photometrisch bei 579 nm.
950 ul Reagens werden in einer 1-cm-Küvette bei 37° C mit 50 ul Enzymlösung vermischt. Als Maß für die Reaktion wird der Extinktionsanstieg pro Zeiteinneit in [mExt/min] ermittelt. Er wird berechnet aus der gemessenen Extinktion durch Division mit der ReaKtionszeit.

In the case of `O=c1ccc2nc3ccc(OC4OC(CO)C(OC5OC(CO)C(OC6OC(CO)C(OC7OC(CO)C(OC8OC(CO)C(OC9OC(CO)C(OC%10OC(CO)C(O)C(O)C%10O)C(O)C9O)C(O)C8O)C(O)C7O)C(O)C6O)C(O)C5O)C(O)C4O)cc3oc-2c1` (stereo not drawn) [Beispiel 17, Resorufin-maltoheptaosid], the Rotfärbung [1] is reported as “deutlich sicntbare Rotfärbung”.

`OC[C@H]1O[C@@H](O[C@H]2[C@H](O)[C@@H](O)C(O)O[C@@H]2CO)[C@H](O)[C@@H](O)[C@H]1O` (stereo partly drawn) [Lactose, reference compound] was tested, and the “Hemmung dieser Hydrolyse” value ([2]; inhibition of the hydrolysis of Resorufin-ß-D-galactopyranosid by the natural substrate) was “kompetitiv”.

`O=c1ccc2nc3ccc(O[C@@H]4O[C@H](CO)[C@H](O)[C@H](O)[C@H]4O)cc3oc-2c1` [Reagens 1, Resorufin-ß-D-galactopyranosid] was tested, and the Reaktionsfarbe [3] was “rote Reaktionsfarbe”, the “Extinktionsanstieg pro Zeiteinheit, Reaktion mit ß-D-Galactosidase-Antikörper-Konjugat” value [4] was 92 mExt/min and the Km ([2]; read-out: Michaelis-Konstante KM, enzymatic hydrolysis of the substrate) was 380 µM. For the same compound, the “Extinktionsanstieg pro Zeiteinheit, Reaktion mit der freien ß-D-Galactosidase” value [5] was 85 mExt/min and the Reaktion [6] was 85 mExt/min.

In the case of “Resorufin-1-carbonsäuremethylester [Beispiel 3]”, the Reaktion [6] is reported as 76 mExt/min.

Resorufin-ß-D-glucosid [Beispiel 2] showed a Reaktion [6] of 46 mExt/min.

— patent EP0156347A2, “Glycosides of resofurin derivatives, method for their preparation and their use in the determination of the activity of glycosidases” (BOEHRINGER MANNHEIM GMBH, priority 1984, dated 1985)
